From patent publication US20150119363A1, “METHODS OF TREATING BACTERIAL INFECTIONS” (Rampex Pharmaceuticals, Inc., priority 2012, published 2015)
Counter-ions that a name gives are not always drawn. Like-named read-outs stand apart in the source and are kept apart here.

Experiments:
[1] = biological target: T1, KPC-2 (Klebsiella pneumoniae KP1004 lysate) (Klebsiella pneumoniae, UniProt Q9F663); test: Inhibition of biapenem hydrolysis by bacterial lysate; format: biochemical
T1 construct: Lysates were prepared from bacteria expressing various β-lactamases as a source of enzymes; endogenous in cells; host or cells: Klebsiella pneumoniae strains KP1004 and KP1008 (freeze-thaw lysate supernatants)
T1 sequence (Q9F663 25-293 limits assumed): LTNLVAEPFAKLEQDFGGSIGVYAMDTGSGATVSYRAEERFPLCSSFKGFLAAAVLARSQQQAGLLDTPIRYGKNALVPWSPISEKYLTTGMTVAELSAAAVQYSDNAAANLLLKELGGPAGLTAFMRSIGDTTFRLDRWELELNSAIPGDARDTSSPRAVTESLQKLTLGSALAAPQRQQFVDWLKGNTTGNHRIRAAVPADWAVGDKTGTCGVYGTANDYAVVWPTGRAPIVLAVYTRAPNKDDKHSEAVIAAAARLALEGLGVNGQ
Protocol: (§1) The activity of β-lactamase inhibitors to inhibit hydrolysis of biapenem was studied. Lysates were prepared from bacteria expressing various β-lactamases as a source of enzymes. Bacterial lysates were prepared as follows. A single colony from the fresh overnight plate was transferred to 5 mL of LB broth and grown to OD600=0.6-0.8. Next, this culture was transferred to 500 mL of LB and grown to OD600=0.7-0.9. Cells were pelleted by centrifugation at 5000 RPM (JA-14 rotor) for 15 minutes at room temperature. The pellet was resuspended in 10 mL of PBS. Five freeze-thaw cycles by putting cells at −20° C. and thawing them at the room temperature were next applied. After the last thaw step cells were spun down at 18K for 30 minutes and the supernatant was collected. This lysate was stored at −20° C.
(§2) Next, the activity of bacterial lysates was optimized for biapenem cleavage as follows. 50 μl of buffer A (50 mM Sodium Phosphate pH=7; 0.5% glucose, 1 mM MgCl2) was added to each well of 96-well UV-transparent plate. 50 μl of lysate was titrated vertically in 96-well plate column to generate 2-fold lysate dilutions. 100 μl of buffer A was added to each well, placed in plate reader at 37° C. and incubated for 15 minutes. 50 μl of 50 μg/mL solutions of biapenem in buffer A (pre-incubated at 37° C. for 15 minutes) were added to each well. Hydrolysis of biapenem was measured at 296 nm. This experiment was used to determine the optimal lysate dilution which produced a linear curve of relative UV signal that decreased to approximately OD=0.3-0.5 over 1 hour.
(§3) Finally, the potency of cyclic boronic acid derivative to inhibit the cleavage of biapenem cleavage by bacterial lysates was determined. 100 μl of buffer A (50 mM Sodium Phosphate pH=7; 0.5% glucose, 1 mM MgCl2) was added to each well of 96-well UV-transparent plate. 50 μl of 6× cyclic boronic acid derivative solution in buffer A was titrated vertically in 96-well plate column to generate 3-fold dilutions. 50 μl of diluted lysate in buffer A (optimal dilution is determined in experiment above) was added, and the plate was incubated in the plate reader at 37° C. for 15 minutes. 50 μl of 50 μg/mL solution of biapenem in buffer A (pre-incubated at 37° C. for 15 minutes) were next added to each well and hydrolysis of biapenem was recorded at 296 nm. EC50 of inhibition was determined by plotting the rate of biapenem cleavage vs. cyclic boronic acid derivative concentration.

[2] = biological target: T2, KPC-2 (Klebsiella pneumoniae KP1008 lysate) (Klebsiella pneumoniae, UniProt Q9F663); test: as above; format: biochemical
T2 construct: Lysates were prepared from bacteria expressing various β-lactamases as a source of enzymes; endogenous in cells; host or cells: Klebsiella pneumoniae strains KP1004 and KP1008 (freeze-thaw lysate supernatants)
T2 sequence (Q9F663 25-293 limits assumed): as above
Protocol: as §1, §2, §3

[3] = biological target: T3, KPC-3 (Escherichia coli EC1007 lysate) (Klebsiella pneumoniae, UniProt Q9F663, H272Y); test: as above; format: biochemical
T3 construct: Lysates were prepared from bacteria expressing various β-lactamases as a source of enzymes; endogenous in cells; host or cells: Escherichia coli strain EC1007 (freeze-thaw lysate supernatant)
T3 sequence (Q9F663 25-293 H272Y): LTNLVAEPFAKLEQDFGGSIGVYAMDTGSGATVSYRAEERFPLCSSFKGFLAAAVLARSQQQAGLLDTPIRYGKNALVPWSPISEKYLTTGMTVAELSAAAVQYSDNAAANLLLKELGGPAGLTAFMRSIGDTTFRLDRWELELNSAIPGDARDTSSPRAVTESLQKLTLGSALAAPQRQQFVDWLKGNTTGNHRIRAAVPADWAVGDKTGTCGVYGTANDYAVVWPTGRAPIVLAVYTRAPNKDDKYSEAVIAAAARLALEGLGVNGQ
Protocol: as §1, §2, §3

[4] = biological target: T4, SME-2 (Serratia marcescens SM1000 lysate) (Serratia marcescens, UniProt P52682); test: as above; format: biochemical
T4 construct: Lysates were prepared from bacteria expressing various β-lactamases as a source of enzymes
T4 sequence (P52682 28-294 limits assumed): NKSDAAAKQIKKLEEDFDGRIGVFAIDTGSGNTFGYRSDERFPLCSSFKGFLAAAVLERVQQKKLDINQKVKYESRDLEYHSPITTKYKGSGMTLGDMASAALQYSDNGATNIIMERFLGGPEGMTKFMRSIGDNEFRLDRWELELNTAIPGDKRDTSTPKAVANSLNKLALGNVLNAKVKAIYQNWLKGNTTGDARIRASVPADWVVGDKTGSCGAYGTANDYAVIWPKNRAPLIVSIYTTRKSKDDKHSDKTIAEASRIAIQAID
Protocol: as §1, §2, §3

[5] = system: ECL1004 NMC-A; test: Dose titration biapenem potentiation assay (MPC1); format: cell-based, Enterobacter cloacae; conditions: biapenem 1 μg/mL
Protocol: (§4) The potency and spectrum of β-lactamase inhibitors is also determined by assessing their biapenem potentiation activity in a dose titration potentiation assay using strains expressing serine carbapemenases (such as KPC). The potentiation effect is observed as the ability of BLI compounds to inhibit growth in the presence of sub-inhibitory concentration of biapenem. […] Biapenem is present in the test medium at 1 μg/mL. Compounds tested at the highest concentration of 40 μg/mL. […] Table 5 summarizes BLI potency of biapenem potentiation (MPC1). Biapenem MIC for each strain is also shown.

[6] = system: EC1007 KPC-3; test: Dose titration biapenem potentiation assay (MPC1); format: cell-based, Escherichia coli; conditions: biapenem 1 μg/mL
Protocol: as §4

[7] = system: Klebsiella pneumoniae KP1004 (KPC-2); test: Checkerboard assay, biapenem potentiation (MPC8); format: cell-based; conditions: concentration to reduce biapenem MIC 8-fold
Protocol: (§5) The potency and spectrum of β-lactamase inhibitors was determined by assessing their antibiotic potentiation activity.
(§6) The potentiation effect is observed by the reduction of the minimum inhibitory concentration of β-lactam antibiotics in the presence of β-lactamase inhibitors (BLIs). […] Methods for Dilution of Antimicrobial Susceptibility Tests for Bacteria That Grow Aerobically—Eighth Edition; Approved Standard. CLSI Document M07-A8, 2009). In this assay, multiple dilutions of two drugs, namely BLI and β-lactam (biapenem), are being tested, alone and in combination, at concentrations equal to, above and below their respective minimal inhibitory concentrations (MICs). BLIs are solubilized in 10% DMSO at 10 mg/mL. Stock solutions are further diluted, according to the needs of a particular assay, in Mueller Hinton Broth (MHB). Stock solution can be stored at −80° C.
(§7) The checkerboard (CB) assay is performed in microtiter plates. Biapenem is diluted in the x axis, each column containing a single concentration of antibiotic. BLIs are diluted in the y axis, each row containing an equal concentration of BLI. The result of these manipulations is that each well of the microtiter plate contains a unique combination of concentrations of the two agents. The assay is performed in MHB with a final bacterial inoculum of 5×10^5 CFU/mL (from an early-log phase culture). Microtiter plates are incubated during 20 h at 35° C. and are read using a microtiter plate reader (Molecular Devices) at 650 nm as well as visual observation using a microtiter plate reading mirror.
(§8) Biapenem is a carbapenem β-lactam; only selected β-lactamases confer resistance to this class of antibiotics. Among them are serine carbapemenases that belong to class A and class D. Biapenem potentiation is studied in strains expressing various carbapenemases from these classes using CB assays. […] Cyclic boronic acid derivatives were capable of reducing biapenem MICs up to 1000-fold (Table 3).

[8] = system: Acinetobacter baumannii AB1057 (OXA-58); test: Checkerboard assay, biapenem potentiation (MPC8); format: cell-based; conditions: concentration to reduce biapenem MIC 8-fold
Protocol: as §5, §6, §7, §8

[9] = system: Acinetobacter baumannii AB1054 (OXA-23); test: Checkerboard assay, biapenem potentiation (MPC8); format: cell-based; conditions: concentration to reduce biapenem MIC 8-fold
Protocol: as §5, §6, §7, §8

[10] = system: KP1004 KPC-2; test: Dose titration biapenem potentiation assay (MPC1); format: cell-based, Klebsiella pneumoniae; conditions: biapenem 1 μg/mL
Protocol: as §4

[11] = system: KP1008 KPC-2; test: Dose titration biapenem potentiation assay (MPC1); format: cell-based, Klebsiella pneumoniae; conditions: biapenem 1 μg/mL
Protocol: as §4

[12] = EC1007 KPC-3 lysate, read-out: IC50 (μg/mL) of inhibition of biapenem hydrolysis
[13] = SM1000 SME-2 lysate; read-out: IC50 (μg/mL) of inhibition of biapenem hydrolysis
[14] = read-out: IC50 (μg/mL) of inhibition of biapenem hydrolysis; SM1000 SME-2 lysate

O=C(O)CC1CC[C@H](NC(=O)C2CC2)B(O)O1 (stereo partly drawn) [Compound 4, 2-((3R)-3-(cyclopropanecarboxamido)-2-hydroxy-1,2-oxaborinan-6-yl)acetic acid]
IC50 [1]: 0.415 to 4.15 µM
IC50 [2]: > 4.15 µM
IC50 [3, 12]: 0.415 to 4.15 µM
IC50 [4, 13]: 0.415 to 4.15 µM
BPM MPC1 ECL1004 NMC-A [5]: X (X = MPC1 of less than 1 μg/mL.)
BPM MPC1 EC1007 KPC-3 [6]: X (X = MPC1 of less than 1 μg/mL.)
MPC8 [7]: X (X = MPC8 of less than 0.16 μg/mL.)
MPC8 [8]: Z (Z = MPC8 of greater than 1 μg/mL.)
MPC8 [9]: Z (Z = MPC8 of greater than 1 μg/mL.)
BPM MPC1 KP1004 KPC-2 [10]: X (X = MPC1 of less than 1 μg/mL.)
BPM MPC1 KP1008 KPC-2 [11]: X (X = MPC1 of less than 1 μg/mL.)

O=C(O)C[C@@H]1CC[C@H](NC(=O)Cc2ccccc2)B(O)O1 [Compound 6, 2-((3R,6S)-2-hydroxy-3-(2-phenylacetamido)-1,2-oxaborinan-6-yl)acetic acid]
IC50 [1]: 0.344 to 3.44 µM
IC50 [2]: 0.344 to 3.44 µM
IC50 [3, 12]: < 0.344 µM
IC50 [4, 13]: 0.344 to 3.44 µM
BPM MPC1 ECL1004 NMC-A [5]: X (X = MPC1 of less than 1 μg/mL.)
BPM MPC1 EC1007 KPC-3 [6]: X (X = MPC1 of less than 1 μg/mL.)
MPC8 [7]: X (X = MPC8 of less than 0.16 μg/mL.)
MPC8 [8]: Z (Z = MPC8 of greater than 1 μg/mL.)
MPC8 [9]: X (X = MPC8 of less than 0.16 μg/mL.)
BPM MPC1 KP1004 KPC-2 [10]: X (X = MPC1 of less than 1 μg/mL.)
BPM MPC1 KP1008 KPC-2 [11]: X (X = MPC1 of less than 1 μg/mL.)

N[C@H]1CCC(CC(=O)O)OB1O (stereo partly drawn) [Compound 7, 2-((3R)-3-amino-2-hydroxy-1,2-oxaborinan-6-yl)acetic acid hydrochloride]
IC50 [3]: > 5.78 µM
IC50 [4, 14]: > 5.78 µM

C[C@]1(Cn2ccnn2)[C@H](C(=O)O)N2C(=O)C[C@H]2S1(=O)=O [Tazobactam, reference compound]
IC50 [1]: > 3.33 µM
IC50 [2]: > 3.33 µM
IC50 [3]: > 3.33 µM
IC50 [4, 14]: 0.333 to 3.33 µM
BPM MPC1 ECL1004 NMC-A ([5]; numeric value): 0.6 µg/mL
BPM MPC1 EC1007 KPC-3 ([6]; numeric value): 5 µg/mL
BPM MPC1 KP1004 KPC-2 ([10]; numeric value): 40 µg/mL
BPM MPC1 KP1008 KPC-2 ([11]; numeric value): 0.3 µg/mL
